For 36 compounds, melting point results are on record in patent US20050043315A1, “Aminopyrimidine compounds, processes for their preparation and pharmaceutical compositions containing them” (priority 2002, published 2005).

Each structure is given as a SMILES string.

For orientation: melting point means the temperature, or range, at which the solid turns liquid. Consider `CC(C)n1nc(-c2c(OCc3ccccc3)nc(N)nc2-c2ccccc2)ccc1=O` [Example 93, 6-[2-amino-4-(benzyloxy)-6-phenyl-5-pyrimidinyl]-2-isopropyl-3(2H)-pyridazinone], for which the melting point fell in the range of 162 to 163 °C.

Take `CC(C)n1nc(-c2c(OCc3ccccn3)nc(N)nc2-c2ccccc2)ccc1=O` [Example 94, 6-[2-amino-4-phenyl-6-(2-pyridinylmethoxy)-5-pyrimidinyl]-2-isopropyl-3(2H)-pyridazinone]: the melting point fell in the range of 177 to 178 °C.

For `CC(C)n1nc(-c2c(OC3CCCCC3)nc(N)nc2-c2ccccc2)ccc1=O` [Example 96, 6-[2-Amino-4-(cyclohexyloxy)-6-phenyl-5-pyrimidinyl]-2-isopropyl-3(2H)-pyridazinone], the melting point lay in the range of 173 to 175 °C.

`CC(C)n1nc(-c2c(OC3CCOCC3)nc(N)nc2-c2ccccc2)ccc1=O` [Example 97, 6-[2-Amino-4-phenyl-6-(tetrahydro-2H-pyran-4-yloxy)-5-pyrimidinyl]-2-isopropyl-3(2H)-pyridazinone] showed a melting point of 207 to 209 °C.

`CC(C)n1nc(-c2c(Oc3ccccc3)nc(N)nc2-c2ccccc2)ccc1=O` [Example 98, 6-(2-Amino-4-phenoxy-6-phenyl-5-pyrimidinyl)-2-isopropyl-3(2H)-pyridazinone] showed a melting point of 218 to 221 °C.

For `CC(C)n1nc(-c2c(OCC(N)=O)nc(N)nc2-c2ccccc2)ccc1=O` [Example 99, 2-{[2-amino-5-(1-isopropyl-6-oxo-1,6-dihydro-3-pyridazinyl)-6-phenyl-4-pyrimidinyl]oxy}acetamide], the melting point lay in the range of 257 to 261 °C.

In the case of `CC(C)n1nc(-c2c(OCC(=O)O)nc(N)nc2-c2ccccc2)ccc1=O` [Example 100, {[2-amino-5-(1-isopropyl-6-oxo-1,6-dihydro-3-pyridazinyl)-6-phenyl-4-pyrimidinyl]oxy}acetic acid], the melting point lay within 215 to 217 °C.

`CNC(=O)COc1nc(N)nc(-c2ccccc2)c1-c1ccc(=O)n(C(C)C)n1` [Example 101, 2-{[2-amino-5-(1-isopropyl-6-oxo-1,6-dihydro-3-pyridazinyl)-6-phenyl-4-pyrimidinyl]oxy}-N-methylacetamide]: the melting point was in the range of 204 to 205.5 °C.

Regarding `CC(C)n1nc(-c2c(OCC(=O)N(C)C)nc(N)nc2-c2ccccc2)ccc1=O` [Example 102, 2-{[2-Amino-5-(1-isopropyl-6-oxo-1,6-dihydro-3-pyridazinyl)-6-phenyl-4-pyrimidinyl]oxy}-N,N-dimethylacetamide], the melting point lay in the range of 133 to 135.5 °C.

Compound `CC(C)n1nc(-c2c(OCC(=O)NC3CC3)nc(N)nc2-c2ccccc2)ccc1=O` [Example 103, 2-{[2-Amino-5-(1-isopropyl-6-oxo-1,6-dihydro-3-pyridazinyl)-6-phenyl-4-pyrimidinyl]oxy}-N-cyclopropylacetamide] displayed a melting point of 87 to 92 °C.

Consider `CC(C)n1nc(-c2c(OCCN)nc(N)nc2-c2ccccc2)ccc1=O` [Example 104, 6-[2-amino-4-(2-aminoethoxy)-6-phenyl-5-pyrimidinyl]-2-isopropyl-3(2H)-pyridazinone], for which the melting point lay in the range of 213 to 216 °C.

`CC(C)n1nc(-c2c(N)nc(N)nc2-c2ccccc2)ccc1=O` [Example 105, 6-(2,4-diamino-6-phenyl-5-pyrimidinyl)-2-isopropyl-3(2H)-pyridazinone]: the melting point was 258 to 260 °C.

With `CNc1nc(N)nc(-c2ccccc2)c1-c1ccc(=O)n(C(C)C)n1` [Example 106, 6-[2-Amino-4-(methylamino)-6-phenyl-5-pyrimidinyl]-2-isopropyl-3(2H)-pyridazinone], the melting point is 268 to 270 °C.

In turn, `CC(C)n1nc(-c2c(-c3ccccc3)nc(N)nc2N(C)C)ccc1=O` [Example 107, 6-[2-Amino-4-(dimethylamino)-6-phenyl-5-pyrimidinyl]-2-isopropyl-3(2H)-pyridazinone] returned a melting point of 293 to 296 °C.

`CCNc1nc(N)nc(-c2ccccc2)c1-c1ccc(=O)n(C(C)C)n1` [Example 108, 6-[2-Amino-4-(ethylamino)-6-phenyl-5-pyrimidinyl]-2-isopropyl-3(2H)-pyridazinone] showed a melting point of 208 to 209 °C.

Consider `CCCNc1nc(N)nc(-c2ccccc2)c1-c1ccc(=O)n(C(C)C)n1` [Example 109, 6-[2-Amino-4-phenyl-6-(propylamino)-5-pyrimidinyl]-2-isopropyl-3(2H)-pyridazinone], for which the melting point fell in the range of 209 to 212 °C.

In turn, `CC(C)Nc1nc(N)nc(-c2ccccc2)c1-c1ccc(=O)n(C(C)C)n1` [Example 110, 6-[2-Amino-4-(isopropylamino)-6-phenyl-5-pyrimidinyl]-2-isopropyl-3(2H)-pyridazinone] gave a melting point of 234 to 236 °C.

In turn, `C=CCNc1nc(N)nc(-c2ccccc2)c1-c1ccc(=O)n(C(C)C)n1` [Example 111, 6-[4-(Allylamino)-2-amino-6-phenyl-5-pyrimidinyl]-2-isopropyl-3(2H)-pyridazinone] showed a melting point of 191.5 to 192.5 °C.

With `CC(C)n1nc(-c2c(NC3CC3)nc(N)nc2-c2ccccc2)ccc1=O` [Example 112, 6-[2-Amino-4-(cyclopropylamino)-6-phenyl-5-pyrimidinyl]-2-isopropyl-3(2H)-pyridazinone], the melting point was 237 to 239 °C.

Regarding `CC(C)n1nc(-c2c(NC(C)(C)C)nc(N)nc2-c2ccccc2)ccc1=O` [Example 113, 6-[2-Amino-4-(tert-butylamino)-6-phenyl-5-pyrimidinyl]-2-isopropyl-3(2H)-pyridazinone], the melting point was in the range of 202 to 204 °C.

For the compound `CC(C)n1nc(-c2c(NCCO)nc(N)nc2-c2ccccc2)ccc1=O` [Example 114, 6-{2-amino-4-[(2-hydroxyethyl)amino]-6-phenyl-5-pyrimidinyl}-2-isopropyl-3(2H)-pyridazinone], the melting point was 221.5 to 223.5 °C.

Take `COCCNc1nc(N)nc(-c2ccccc2)c1-c1ccc(=O)n(C(C)C)n1` [Example 115, 6-{2-amino-4-[(2-methoxyethyl)amino]-6-phenyl-5-pyrimidinyl}-2-isopropyl-3(2H)-pyridazinone]: the melting point lay in the range of 168 to 170 °C.

`CC(C)n1nc(-c2c(NCCN)nc(N)nc2-c2ccccc2)ccc1=O` [Example 116, 6-{2-Amino-4-[(2-aminoethyl)amino]-6-phenyl-5-pyrimidinyl}-2-isopropyl-3(2H)-pyridazinone] returned a melting point of 194 to 197 °C.

In turn, `CC(C)n1nc(-c2c(NCCN(C)C)nc(N)nc2-c2ccccc2)ccc1=O` [Example 117, 6-(2-Amino-4-{[2-(dimethylamino)ethyl]amino}-6-phenyl-5-pyrimidinyl)-2-isopropyl-3(2H)-pyridazinone] displayed a melting point of 164 to 165.5 °C.

On to `CC(C)n1nc(-c2c(NCC(N)=O)nc(N)nc2-c2ccccc2)ccc1=O` [Example 118, 2-{(2-amino-5-(1-isopropyl-6-oxo-1,6-dihydro-3-pyridazinyl)-6-phenyl-4-pyrimidinyl]amino}acetamide], for which the melting point fell in the range of 235 to 237.5 °C.

`CC(C)n1nc(-c2c(-c3ccccc3)nc(N)nc2N(C)Cc2ccccc2)ccc1=O` [Example 120, 6-{2-amino-4-[benzyl(methyl)amino]-6-phenyl-5-pyrimidinyl}-2-isopropyl-3(2H)-pyridazinone] showed a melting point of 167 to 168 °C.

For `CC(C)n1nc(-c2c(NCc3ccccn3)nc(N)nc2-c2ccccc2)ccc1=O` [Example 121, 6-{2-Amino-4-phenyl-6-[(2-pyridinylmethyl)amino]-5-pyrimidinyl}-2-isopropyl-3(2H)-pyridazinone], the melting point lay within 196 to 198 °C.

`CC(C)n1nc(-c2c(NCc3cccnc3)nc(N)nc2-c2ccccc2)ccc1=O` [Example 122, 6-{2-Amino-4-phenyl-6-[(3-pyridinylmethyl)amino]-5-pyrimidinyl}-2-isopropyl-3(2H)-pyridazinone] displayed a melting point of 215 to 216.5 °C.

Compound `CC(C)n1nc(-c2c(NCc3ccncc3)nc(N)nc2-c2ccccc2)ccc1=O` [Example 123, 6-{2-Amino-4-phenyl-6-[(4-pyridinylmethyl)amino]-5-pyrimidinyl}-2-isopropyl-3(2H)-pyridazinone] yielded a melting point of 221.5 to 222.5 °C.

Consider `CC(C)n1nc(-c2c(NCc3ccco3)nc(N)nc2-c2ccccc2)ccc1=O` [Example 124, 6-{2-Amino-4-[(2-furylmethyl)amino]-6-phenyl-5-pyrimidinyl}-2-isopropyl-3(2H)-pyridazinone], for which the melting point is 213 to 214 °C.

The compound `CC(C)n1nc(-c2c(-c3ccccc3)nc(N)nc2N2CCCC2)ccc1=O` [Example 125, 6-[2-Amino-4-phenyl-6-(1-pyrrolidinyl)-5-pyrimidinyl]-2-isopropyl-3(2H)-pyridazinone] showed a melting point of over 300 °C.

`CC(C)n1nc(-c2c(-c3ccccc3)nc(N)nc2N2CCCCC2)ccc1=O` [Example 126, 6-[2-Amino-4-phenyl-6-(1-piperidinyl)-5-pyrimidinyl]-2-isopropyl-3(2H)-pyridazinone] showed a melting point of 221 to 223 °C.

Compound `CC(C)n1nc(-c2c(-c3ccccc3)nc(N)nc2N2CCOCC2)ccc1=O` [Example 127, 6-[2-Amino-4-(4-morpholinyl)-6-phenyl-5-pyrimidinyl]-2-isopropyl-3(2H)-pyridazinone] had a melting point of 251 to 253 °C.

The compound `CC(C)n1nc(-c2c(-c3ccccc3)nc(N)nc2N2CCNCC2)ccc1=O` [Example 128, 6-[2-amino-4-phenyl-6-(1-piperazinyl)-5-pyrimidinyl]-2-isopropyl-3(2H)-pyridazinone] yielded a melting point of 254 to 256 °C.

`CC(C)n1nc(-c2c(-c3ccccc3)nc(N)nc2N2CCN(C)CC2)ccc1=O` [Example 129, 6-[2-Amino-4-(4-methyl-1-piperazinyl)-6-phenyl-5-pyrimidinyl]-2-isopropyl-3(2H)-pyridazinone] came in with a melting point of 213 to 215 °C.

In the case of `CC(C)n1nc(-c2c(-c3ccccc3)nc(N)nc2-n2ccnc2)ccc1=O` [Example 130, 6-[2-amino-4-(1H-imidazol-1-yl)-6-phenyl-5-pyrimidinyl]-2-isopropyl-3(2H)-pyridazinone], the melting point was 255 to 258 °C.
